US9856240B2, “Compounds that modulate intracellular calcium” (CalciMedica, Inc., priority 2011, dated 2018)

Key:
[1] = target: T1, recombinant human STIM1 and Orai1 (HEK-293 cells) (Homo sapiens, UniProt Q96D31); experiment: Fluorescence-based assay of store-operated calcium entry in Orai1/STIM1 stable cells; type: cell-based; design: key to Orai1/STIM1 (IC50, μmol): A < 0.6 μmol; 0.6 μmol ≦ B ≦ 1.2 μmol; C > 1.2 μmol; — = no fit; details: for IC50: FLIPR fluo-4, read-out: Orai1/STIM1 (IC50, μmol); for Orai1/STIM1 (IC50, μmol): FLIPR fluo-4
T1 construct: expressed in transfected cells; host or cells: HEK-293 cells stably expressing both proteins
Experimental: A. Fluorescence-Based Assay of Store-Operated Calcium Entry in Orai1/STIM1 Stable Cells.
Cells stably expressing recombinant human STIM1 and Orai1 are generated by transfecting a human Orai1 expression plasmid (pcDNA3.1-Orai1-cmyc) into HEK-293 cells stably overexpressing human STIM1 (Roos et al. 2005 JCB 169(3): 435-445). Colonies of cells stably expressing both STIM1 and Orai1 proteins are selected and then subcloned by limiting dilution. Cells were cultured at 37° C./6% CO2 in complete medium with 10% FBS and appropriate selection markers.
The day prior to performing the assay Orai1/STIM1 stable cells are plated in 50 μL of complete medium at 90-95% confluence in a 384 well plate. Cells are grown at 37° C./6% CO2 overnight. On the day of the assay, 1.5 μM fluo-4-AM (Invitrogen) in complete medium is added to the cells, which are then incubated for 1 hour at RT. Cells are washed once in Ca^2+-free HBSS (Hank's buffered saline solution) and 35 μl of Ca^2+-free HBSS is added to each well. Test compounds are added to wells in a 10 μL Ca^2+-free HBSS solution, prepared at 4.5× the desired final concentration, and incubated for 30 minutes at RT. The initial baseline fluorescence signal is then measured with a FLIPR^384 (Molecular Devices) plate reader. Calcium entry is initiated by adding 5 μl of 10× CaCl2 (10 mM) in HBSS, and changes in cellular fluorescence are measured with the FLIPR^384 plate reader. In each well, the magnitude of the fluorescence signal as a result of calcium entry into the cell is determined by calculating the difference between the peak fluorescence signal measured after calcium addition and the initial baseline fluorescence signal (designated Peak-Basal). IC50 values are typically calculated as the concentration that inhibited 50% of the Peak-Basal signal (Table A).

[2] = tested on: store-operated calcium entry in RBL-2H3 cells; experiment: Fluorescence-based assay of store-operated calcium entry in RBL-2H3 cells; type: cell-based; details: Rattus norvegicus, thapsigargin, FLIPR Fluo-4, read-out: RBL-2H3 (IC50, μmol)
Experimental: B. Fluorescence-Based Assay of Store-Operated Calcium Entry in RBL-2H3 Cells.
RBL-2H3 cells are obtained from ATCC and maintained in complete medium with 10% FBS at 37° C./6% CO2.
The day prior to performing the assay, RBL-2H3 cells are plated in 50 μL of complete medium in a 384 well plate. Cells are grown at 37° C./6% CO2 overnight and grow to 50-60% confluence by the next day. On the assay day, 1.5 μM Fluo-4-AM dye (Invitrogen) in complete medium is added and incubated for 1 hour at RT. Cells are washed twice in Ca^2+-free HBSS buffer and 35 μL Ca^2+-free HBSS buffer is added to each well. 10 μL of a test compound prepared in a Ca^2+-free HBSS solution at 4.5× of the desired concentration is added to a well and incubated for 5 minutes at RT. 10 μL of thapsigargin prepared in a Ca^2+-free HBSS solution at 5.5× of the desired concentration (5.5 uM) is added to each well and incubated for an additional 25 minutes. The initial baseline fluorescence signal is measured with a FLIPR^384 (Molecular Devices) plate reader. 5 μL of 12× calcium in HBSS (12 mM) is added and changes in cellular fluorescence are measured with the FLIPR^384 plate reader. In each well, the change in the fluorescent signal as a function of time due to calcium entry into the cell is determined by calculating the difference between the fluorescent signal measured 7 seconds after calcium addition and the initial baseline fluorescence signal at time zero (t=0). This parameter is designated Upslope. The IC50 value is calculated as the concentration at which 50% of the Upslope is inhibited.

T1 sequence (Q96D31 whole entry): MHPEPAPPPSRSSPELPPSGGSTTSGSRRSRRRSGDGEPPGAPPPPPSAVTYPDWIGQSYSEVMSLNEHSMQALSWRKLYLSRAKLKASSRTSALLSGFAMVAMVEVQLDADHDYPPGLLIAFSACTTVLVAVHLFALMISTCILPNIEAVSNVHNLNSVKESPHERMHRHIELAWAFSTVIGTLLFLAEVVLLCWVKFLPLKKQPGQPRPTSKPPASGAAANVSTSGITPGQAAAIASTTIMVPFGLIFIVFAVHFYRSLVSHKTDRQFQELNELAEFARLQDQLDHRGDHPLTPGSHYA

| Compound | IC50 [1] [µM] | IC50 [2] [µM] | Orai1/STIM1 (IC50, μmol) [1] |
| --- | --- | --- | --- |
| Cn1cccc1C(=O)Nc1ccc(-c2cc3c(cc2Cl)OC(F)(F)O3)cn1 [Example 1, N-(5-(6-chloro-2,2-difluorobenzo[d][1,3]dioxol-5-yl)pyridin-2-yl)-1-methyl-1H-pyrrole-2-carboxamide] | 0.6 to 1.2 | 0.6 to 1.2 |  |
| Cc1nn(C)c(C(=O)Nc2ccc(-c3cc4c(cc3Cl)OC(F)(F)O4)cn2)c1Cl [Example 2, 4-chloro-N-(5-(6-chloro-2,2-difluorobenzo[d][1,3]dioxol-5-yl)pyridin-2-yl)-1,3-dimethyl-1H-pyrazole-5-carboxamide] | > 1.2 | > 1.2 |  |
| Cn1nc(C(F)(F)F)c(Cl)c1C(=O)Nc1ccc(-c2cc3c(cc2Cl)OC(F)(F)O3)cn1 [Example 3, 4-chloro-N-(5-(6-chloro-2,2-difluorobenzo[d][1,3]dioxol-5-yl)pyridin-2-yl)-1-methyl-3-(trifluoromethyl)-1H-pyrazole-5-carboxamide] |  | < 0.6 | — |
| Cn1ncc(C(=O)Nc2ccc(-c3cc4c(cc3Cl)OC(F)(F)O4)cn2)c1C(F)(F)F [Example 4, N-(5-(6-chloro-2,2-difluorobenzo[d][1,3]dioxol-5-yl)pyridin-2-yl)-1-methyl-5-(trifluoromethyl)-1H-pyrazole-4-carboxamide] |  | > 1.2 | — |
| Cc1onc(C(=O)Nc2ccc(-c3cc4c(cc3Cl)OC(F)(F)O4)cn2)c1C [Example 5, N-(5-(6-chloro-2,2-difluorobenzo[d][1,3]dioxol-5-yl)pyridin-2-yl)-4,5-dimethylisoxazole-3-carboxamide] |  | 0.6 to 1.2 | — |
| CCn1nc(C)cc1C(=O)Nc1ccc(-c2cc3c(cc2Cl)OC(F)(F)O3)cn1 [Example 6, N-(5-(6-chloro-2,2-difluorobenzo[d][1,3]dioxol-5-yl)pyridin-2-yl)-1-ethyl-3-methyl-1H-pyrazole-5-carboxamide] | > 1.2 | > 1.2 |  |
| Cc1cc(C(=O)Nc2ccc(-c3cc4c(cc3Cl)OC(F)(F)O4)cn2)n(C)n1 [Example 7, N-(5-(6-chloro-2,2-difluorobenzo[d][1,3]dioxol-5-yl)pyridin-2-yl)-1,3-dimethyl-1H-pyrazole-5-carboxamide] | 0.6 to 1.2 | > 1.2 |  |
| Cn1cc(Cl)c(C(=O)Nc2ccc(-c3cc4c(cc3Cl)OC(F)(F)O4)cn2)n1 [Example 8, 4-chloro-N-(5-(6-chloro-2,2-difluorobenzo[d][1,3]dioxol-5-yl)pyridin-2-yl)-1-methyl-1H-pyrazole-3-carboxamide] | > 1.2 | > 1.2 |  |
| Cn1ncc(Cl)c1C(=O)Nc1ccc(-c2cc3c(cc2Cl)OC(F)(F)O3)cn1 [Example 9, 4-chloro-N-(5-(6-chloro-2,2-difluorobenzo[d][1,3]dioxol-5-yl)pyridin-2-yl)-1-methyl-1H-pyrazole-5-carboxamide] | 0.6 to 1.2 | < 0.6 |  |
| Cc1oncc1C(=O)Nc1ccc(-c2cc3c(cc2Cl)OC(F)(F)O3)cn1 [Example 10, N-(5-(6-chloro-2,2-difluorobenzo[d][1,3]dioxol-5-yl)pyridin-2-yl)-5-methylisoxazole-4-carboxamide] |  |  | — |
| Cc1noc(C)c1C(=O)Nc1ccc(-c2cc3c(cc2Cl)OC(F)(F)O3)cn1 [Example 11, N-(5-(6-chloro-2,2-difluorobenzo[d][1,3]dioxol-5-yl)pyridin-2-yl)-3,5-dimethylisoxazole-4-carboxamide] | < 0.6 | < 0.6 |  |
| CCn1nccc1C(=O)Nc1ccc(-c2cc3c(cc2Cl)OC(F)(F)O3)cn1 [Example 12, N-(5-(6-chloro-2,2-difluorobenzo[d][1,3]dioxol-5-yl)pyridin-2-yl)-1-ethyl-1H-pyrazole-5-carboxamide] | 0.6 to 1.2 | 0.6 to 1.2 |  |
| O=C(Nc1ccc(-c2cc3c(cc2Cl)OC(F)(F)O3)cn1)c1ccnn1C(F)F [Example 13, N-(5-(6-chloro-2,2-difluorobenzo[d][1,3]dioxol-5-yl)pyridin-2-yl)-1-(difluoromethyl)-1H-pyrazole-5-carboxamide] | 0.6 to 1.2 | > 1.2 |  |
| CCc1nnsc1C(=O)Nc1ccc(-c2cc3c(cc2Cl)OC(F)(F)O3)cn1 [Example 14, N-(5-(6-chloro-2,2-difluorobenzo[d][1,3]dioxol-5-yl)pyridin-2-yl)-4-ethyl-1,2,3-thiadiazole-5-carboxamide] | < 0.6 | < 0.6 |  |
| Cc1nscc1C(=O)Nc1ccc(-c2cc3c(cc2Cl)OC(F)(F)O3)cn1 [Example 15, N-(5-(6-chloro-2,2-difluorobenzo[d][1,3]dioxol-5-yl)pyridin-2-yl)-3-methylisothiazole-4-carboxamide] | < 0.6 | < 0.6 |  |
| O=C(Nc1ccc(-c2cc3c(cc2Cl)OC(F)(F)O3)cn1)c1nsc(Cl)c1Cl [Example 16, 4,5-dichloro-N-(5-(6-chloro-2,2-difluorobenzo[d][1,3]dioxol-5-yl)pyridin-2-yl)isothiazole-3-carboxamide] |  | > 1.2 | — |
| Cc1nc(C(F)(F)F)c(C(=O)Nc2ccc(-c3cc4c(cc3Cl)OC(F)(F)O4)cn2)s1 [Example 17, N-(5-(6-chloro-2,2-difluorobenzo[d][1,3]dioxol-5-yl)pyridin-2-yl)-2-methyl-4-(trifluoromethyl)thiazole-5-carboxamide] | > 1.2 | < 0.6 |  |
| Cc1nc(C(=O)Nc2ccc(-c3cc4c(cc3Cl)OC(F)(F)O4)cn2)c(C(F)(F)F)o1 [Example 19, N-(5-(6-chloro-2,2-difluorobenzo[d][1,3]dioxol-5-yl)pyridin-2-yl)-2-methyl-5-(trifluoromethyl)oxazole-4-carboxamide] |  |  | — |
| Cc1nc(C)c(C(=O)Nc2ccc(-c3cc4c(cc3Cl)OC(F)(F)O4)cn2)o1 [Example 21, N-(5-(6-chloro-2,2-difluorobenzo[d][1,3]dioxol-5-yl)pyridin-2-yl)-2,4-dimethyloxazole-5-carboxamide] | > 1.2 |  |  |
| Cn1ncc(C(=O)Nc2cnc(-c3cc4c(cc3Cl)OC(F)(F)O4)cn2)c1C(F)(F)F [Example 22, N-(5-(6-chloro-2,2-difluorobenzo[d][1,3]dioxol-5-yl)pyrazin-2-yl)-1-methyl-5-(trifluoromethyl)-1H-pyrazole-4-carboxamide] |  |  | — |
| Cc1nn(C)c(C(=O)Nc2cnc(-c3cc4c(cc3Cl)OC(F)(F)O4)cn2)c1Cl [Example 23, 4-chloro-N-(5-(6-chloro-2,2-difluorobenzo[d][1,3]dioxol-5-yl)pyrazin-2-yl)-1,3-dimethyl-1H-pyrazole-5-carboxamide] |  |  | — |
| CCn1nc(C)cc1C(=O)Nc1cnc(-c2cc3c(cc2Cl)OC(F)(F)O3)cn1 [Example 26] |  | > 1.2 |  |
| Cn1cc(Cl)c(C(=O)Nc2cnc(-c3cc4c(cc3Cl)OC(F)(F)O4)cn2)n1 [Example 28, 4-chloro-N-(5-(6-chloro-2,2-difluorobenzo[d][1,3]dioxol-5-yl)pyrazin-2-yl)-1-methyl-1H-pyrazole-3-carboxamide] |  |  | — |
| Cc1oncc1C(=O)Nc1cnc(-c2cc3c(cc2Cl)OC(F)(F)O3)cn1 [Example 30, N-(5-(6-chloro-2,2-difluorobenzo[d][1,3]dioxol-5-yl)pyrazin-2-yl)-5-methylisoxazole-4-carboxamide] |  |  | — |
| Cc1cc2c(cc1-c1cnc(NC(=O)c3c(Cl)c(C)nn3C)cn1)OC(F)(F)O2 [Example 36, 4-chloro-N-(5-(2,2-difluoro-6-methylbenzo[d][1,3]dioxol-5-yl)pyrazin-2-yl)-1,3-dimethyl-1H-pyrazole-5-carboxamide] |  |  | — |
